How the values were obtained:
[1] = Plasma pharmacokinetics of GDC-0810 and glucuronide metabolites; type: in vivo, human
Method: (§1) Blood samples were collected for pharmacokinetic assessments. Tumor assessments were performed at screening and every 8 weeks from cycle 1, day 1 (C1D1). Radiographic assessment of objective tumor response or disease progression was based on Response Evaluation Criteria in Solid Tumors (RECIST v1.1). Transvaginal ultrasound scans were performed to monitor endometrial thickness at screening, at every 6 months from C1D1, and at the end of treatment. Imaging with [^18F]-fluoroestradiol positron emission tomography (FES-PET) was performed to quantify ER expression in tumors and to assess for pharmacodynamic response. Further assessment details are provided in Supplementary Methods.
CYP2B6 and CYP2C enzymes. […]
(§2) Blood samples were collected for pharmacokinetic assessment on lead-in day −7 and cycle 2 day 1 (C2D1) at predose (0 hour) and postdose (0.5, 1, 1.5, 2, 3, 4, 6, 8, and 24 hours), (plus at 48 hours postdose for day−7). Full plasma pharmacokinetic profiles were obtained for GDC-0810 and its glucuronide metabolites (acyl-glucuronide and N-glucuronide) using a validated liquid chromatography/ tandem mass spectrometry method, and analyzed using non-compartmental methods for all patients in the dose escalation cohorts.
(§3) Tumor assessments were performed at screening and every 8 weeks from cycle-1, day-1 […]

[2] = test system: ER; assay: [18F]-fluoroestradiol PET (FES-PET) pharmacodynamic response; type: in vivo, human
Method: as §1, with “Methods. […]” for “Methods.”
as §3
Imaging with [18F]-fluoroestradiol positron emission tomography
(FES-PET) was performed to quantify ER expression in tumors and to assess for pharmacodynamic response. In phase Ia, FES-PET scans were acquired at screening and on C2D3 at 18-24 hours post the C2D2 dose. Scans were repeated during cycle 3 if the C2D3 scan […]
(§4) In phase IIa cohort A1 patients, FES-PET scans were acquired at screening and on C3D3 at 18-24 hours post the C3D2 dose. Scans were repeated at the time of progression if feasible. The mean percent change from baseline in SUVmax (corrected for background activity) for up to five index lesions was calculated for each patient; more details are presented in (1). Optional tumor biopsies were collected at baseline (screening)

[3] = Study drug exposure (treatment duration); type: in vivo, human; settings: phase Ia
Text: Patients in all three study phases continued treatment until unacceptable toxicity, disease progression, or consent withdrawal. See Supplementary Methods for other study treatment details.

[4] = test system: ER and Ki-67; assay: Paired tumor biopsies, ER protein levels and Ki-67; type: in vivo, human; settings: after one cycle (28 days of treatment); samples from 3 patients only, no conclusions could be drawn
Method: CYP2B6 and CYP2C enzymes. No hormonal therapy, chemotherapy, immunotherapy, or experimental anti-cancer medications were permitted during the study.
as §2
Tumor assessments were performed at screening and every 8 weeks from cycle-1, day-1 (C1D1). Radiographic assessment of objective tumor response or disease progression was based on Response Evaluation Criteria in Solid Tumors (RECIST v1.1). […] Imaging with [18F]-fluoroestradiol positron emission tomography (FES-PET) was performed to quantify ER expression in tumors and to assess for pharmacodynamic response. […]
as §4, with “Scans were repeated at the time of progression if feasible.” left out, “Optional tumor biopsies were collected at baseline (screening)” left out

[5] = test system: CYP2B6; parameters: method as in printed; settings: stated as reason for dose adjustments; ref not given; cited from earlier work
[6] = test system: CYP2C enzymes; parameters: method as in printed; settings: stated as reason for dose adjustments; ref not given; cited from earlier work

CC/C(=C(/c1ccc(/C=C/C(=O)O)cc1)c1ccc2[nH]ncc2c1)c1ccc(F)cc1Cl [GDC-0810]
average exposure at steady state (AUC0-24 h), non-fasted compared to fasted ([1]; 600 mg QD): 1.5 fold
average exposure at steady state (Cmax), non-fasted compared to fasted ([1]; 600 mg QD): twofold
drug accumulation ([1]; following multiple dosing): Minimal drug accumulation
half-life ([1]; human, plasma, oral, 600-mg QD, non-fasted condition, read-out: mean terminal half-life (converted)): ~8 h
Tmax ([1]; human, plasma, oral, after dosing, read-out: median Tmax): 1 to 3 h
pharmacokinetic profile ([1]; up to 600 mg): linear and dose proportional
patients with complete or near-complete reduction in FES uptake ([2]; 600 mg QD (fasting and non-fasting)): ≥ 80%
response rates by FES-PET ([2]; 600-mg QD, fasting, and non-fasting, including tumors harboring ESR1 mutations): 80–100%
patients with complete or near complete (> 90%) suppression of FES uptake ([2]; all patients who had FES-PET scans): 78%
FES reduction ([2]; in vivo): > 90%
patients with complete or near complete (> 90%) suppression of FES uptake ([2]; patients with tumors harboring ESR1 mutations): 18 of 26
patients with complete or near complete (> 90%) suppression of FES uptake ([2]; phase IIa dose expansion, baseline and C3D3 scans): 7 of 10
patients with a single lesion considered FES-avid (SUVmax corrected > 1.5) ([2]; phase Ia dose escalation, C2D3): two
patients with complete or near complete (> 90%) suppression of FES uptake ([2]; phase Ia, baseline and C2D3 scans): 24 of 30
patients remaining on study treatment for 2 years [3]: Two
ER and Ki-67 levels in tumor specimens [4]: reduced ER and Ki-67 levels
effects on CYP2B6 [5]: inhibitory effects
effects on CYP2C enzymes [6]: inhibitory effects

— PMC9823088, “The oral selective estrogen receptor degrader GDC-0810 (ARN-810) in postmenopausal women with hormone receptor-positive HER2-negative (HR + /HER2 −) advanced/metastatic breast cancer” (Breast Cancer Research and Treatment, 2022)
